Test results: ChEMBL document CHEMBL1147897, “Synthesis of enantiomerically pure milnacipran analogs and inhibition of dopamine, serotonin, and norepinephrine transporters” (Bioorg Med Chem Lett, 2007)
Values joined by “and” are separate entries in the source; they are usually repeats but may differ in a detail not shown here. Equal entries are not always repeated.

Tests used:
Format in all cases: functional, subcellular, Brain
[1] = molecular target: Norepinephrine transporter (Rattus norvegicus, UniProt Q9WTR4); assay: Inhibition of [3H]5-HT uptake at NE transporter in Wistar rat synaptosomes
Chain of Norepinephrine transporter (Q9WTR4 whole entry): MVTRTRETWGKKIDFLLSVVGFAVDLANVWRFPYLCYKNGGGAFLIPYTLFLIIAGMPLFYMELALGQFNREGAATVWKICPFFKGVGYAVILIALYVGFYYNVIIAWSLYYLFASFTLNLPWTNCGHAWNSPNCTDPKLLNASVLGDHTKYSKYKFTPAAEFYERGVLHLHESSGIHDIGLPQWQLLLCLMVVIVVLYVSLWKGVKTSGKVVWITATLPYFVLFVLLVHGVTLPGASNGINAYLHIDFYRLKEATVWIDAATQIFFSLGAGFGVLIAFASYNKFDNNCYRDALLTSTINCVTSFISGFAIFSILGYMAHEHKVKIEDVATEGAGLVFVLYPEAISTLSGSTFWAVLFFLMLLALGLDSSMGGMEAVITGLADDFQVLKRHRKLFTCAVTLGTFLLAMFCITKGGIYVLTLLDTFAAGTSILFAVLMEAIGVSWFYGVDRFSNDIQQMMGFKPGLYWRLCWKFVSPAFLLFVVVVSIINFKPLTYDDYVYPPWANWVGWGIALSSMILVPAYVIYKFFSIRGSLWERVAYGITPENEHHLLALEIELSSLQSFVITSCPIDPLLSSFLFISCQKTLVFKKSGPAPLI

[2] = molecular target: Sodium-dependent serotonin transporter (Rattus norvegicus, UniProt P31652); assay: Inhibition of [3H]5-HT uptake at 5HT transporter in Wistar rat synaptosomes
Chain of Sodium-dependent serotonin transporter (P31652 whole entry): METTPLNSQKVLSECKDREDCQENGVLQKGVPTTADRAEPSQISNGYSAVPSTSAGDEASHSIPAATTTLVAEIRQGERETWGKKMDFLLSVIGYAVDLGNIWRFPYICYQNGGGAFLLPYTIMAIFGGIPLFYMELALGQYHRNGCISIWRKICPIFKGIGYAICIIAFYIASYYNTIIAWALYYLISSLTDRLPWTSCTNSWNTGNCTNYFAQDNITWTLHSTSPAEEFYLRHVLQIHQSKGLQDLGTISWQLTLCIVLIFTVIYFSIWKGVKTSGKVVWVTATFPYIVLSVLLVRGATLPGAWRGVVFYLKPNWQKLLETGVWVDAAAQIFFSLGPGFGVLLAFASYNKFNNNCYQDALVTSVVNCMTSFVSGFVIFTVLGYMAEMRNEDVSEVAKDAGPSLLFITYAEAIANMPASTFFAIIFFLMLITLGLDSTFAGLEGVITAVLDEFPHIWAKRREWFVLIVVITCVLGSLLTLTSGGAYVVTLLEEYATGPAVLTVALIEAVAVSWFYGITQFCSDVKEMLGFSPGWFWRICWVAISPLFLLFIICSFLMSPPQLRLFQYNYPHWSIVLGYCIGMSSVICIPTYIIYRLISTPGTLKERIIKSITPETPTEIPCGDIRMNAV

[3] = molecular target: Sodium-dependent dopamine transporter (Rattus norvegicus, UniProt P23977); assay: Inhibition of [3H]5-HT uptake at DA transporter in Wistar rat synaptosomes
Chain of Sodium-dependent dopamine transporter (P23977 whole entry): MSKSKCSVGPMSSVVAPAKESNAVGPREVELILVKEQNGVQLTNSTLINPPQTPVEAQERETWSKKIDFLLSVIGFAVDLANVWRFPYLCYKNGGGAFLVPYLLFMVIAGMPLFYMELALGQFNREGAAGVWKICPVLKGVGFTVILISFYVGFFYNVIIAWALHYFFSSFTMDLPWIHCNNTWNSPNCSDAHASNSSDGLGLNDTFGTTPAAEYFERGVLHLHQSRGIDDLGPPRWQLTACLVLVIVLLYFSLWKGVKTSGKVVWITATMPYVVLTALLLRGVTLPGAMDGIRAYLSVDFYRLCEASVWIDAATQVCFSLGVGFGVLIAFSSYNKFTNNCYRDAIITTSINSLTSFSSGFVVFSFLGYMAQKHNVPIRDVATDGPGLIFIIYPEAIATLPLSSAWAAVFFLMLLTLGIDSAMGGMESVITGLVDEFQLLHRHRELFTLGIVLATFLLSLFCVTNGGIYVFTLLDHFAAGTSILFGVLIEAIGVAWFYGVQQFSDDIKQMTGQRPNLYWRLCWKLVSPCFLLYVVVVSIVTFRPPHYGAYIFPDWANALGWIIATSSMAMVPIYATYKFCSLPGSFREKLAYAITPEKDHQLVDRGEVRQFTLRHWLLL

IC50 [1] [µM]	IC50 [2]	IC50 [3] [µM]	SMILES
0.005	0.018 µM	0.14	CCN(CC)C(=O)[C@]1(c2ccc3ccccc3c2)C[C@@H]1CN
	0.79 µM		CCN(CC)C(=O)[C@@]1(c2ccc(Cl)cc2)C[C@H]1CN
0.029	0.13 µM	1.4	CCN(CC)C(=O)[C@@]1(c2ccc3ccccc3c2)C[C@H]1CN
0.019	0.19 µM	10	CCN(CC)C(=O)[C@@]1(c2ccsc2)C[C@H]1CN
	0.19 µM	3.7	CCN(CC)C(=O)[C@]1(c2ccc(Cl)cc2)C[C@@H]1CN
0.035	0.51 µM		CCN(CC)C(=O)[C@@]1(c2ccc(OC)cc2)C[C@H]1CN
0.038	0.17 µM		CCN(CC)C(=O)[C@]1(c2cccc(Cl)c2)C[C@@H]1CN
	0.25 µM and 0.52 µM		CCN(CC)C(=O)[C@]1(c2cccs2)C[C@@H]1CN
0.14	0.23 µM		CCN(CC)C(=O)[C@]1(c2ccc(OC)cc2)C[C@@H]1CN
0.2	1.2 µM	5.3	CCN(CC)C(=O)[C@]1(c2cccc3ccccc23)C[C@@H]1CN
0.5	0.32 µM	10	CCN(CC)C(=O)[C@]1(c2ccc(F)cc2)C[C@@H]1CN
0.033	0.086 µM	9	CCN(CC)C(=O)[C@@]1(c2cccc(Cl)c2)C[C@H]1CN
0.01	0.084 µM	0.54	CCN(CC)C(=O)[C@]1(c2ccc(Cl)c(Cl)c2)C[C@@H]1CN
0.37	7.1 µM	10	CCN(CC)C(=O)[C@@]1(c2cccc3ccccc23)C[C@H]1CN
0.026	0.44 µM	1.7	CCN(CC)C(=O)[C@@]1(c2ccc(Cl)c(Cl)c2)C[C@H]1CN
0.063	0.21 µM		CCN(CC)C(=O)[C@@]1(c2ccc(F)cc2)C[C@H]1CN
0.41	0.25 µM		CCN(CC)C(=O)[C@]1(c2ccsc2)C[C@@H]1CN
